Laboratory results published in patent publication US20160089443A1, “PROTEIN-GRAPHENE NANOCOMPOSITE DRUG CARRIER” (NATIONAL CHIAO TUNG UNIVERSITY, priority 2014, published 2016).
Converted amounts (≈) assume the structure as drawn.

Experiments:
RG2 cells = assay: Toxicity tests for photothermal therapy in RG2 cells
Procedure: Toxicity tests for photothermal therapy: No carriers, non-drug loaded carriers, and drug carriers of the present invention with different DOX concentrations were independently incubated with RG2 cells in vitro for 1 hour, and irradiated by NIR for 5 minutes (808 nm, 2 W/cm^2). Then, the cells were stained by propidium iodide and observed by a confocal microscope, and the cell viabilities were calculated.
The conditions for bars 810, 820, and 830 were without using of DOX, and bars 810, 820, and 830 represents the cell viabilities of no carriers, which is as a control, carriers without the NIR irradiation, and carriers with the NIR irradiation, respectively. The conditions for bars 840, 850, and 860 were using of 0.25 μg/mL DOX, and bars 840, 850, and 860 represents the cell viabilities of pure DOX, which is as a control, carriers without the NIR irradiation, and carriers with the NIR irradiation, respectively. The conditions for bars 870, 880, and 890 were using of 0.05 μg/mL DOX, and bars 870, 880, and 890 represents the cell viabilities of pure DOX, which is as a control, carriers without the NIR irradiation, and carriers with the NIR irradiation, respectively. […] Bar 850 represents the drug carriers loaded with 0.25 μg/mL DOX, but not underwent the NIR irradiation after incubating with the cells. […] Bar 860 represents the drug carriers loaded with 0.25 μg/mL DOX, and underwent the NIR irradiation after incubating with the cells.

[1] = Mass of mice after treatment; type: in vivo; conditions: with NIR irradiation
Description: Further, referring to FIG. 15B, which is a mass vs. time graph of mice after treated by different conditions. The treating conditions were PBS+NIR irradiation, pure DOX+NIR irradiation, non-drug loaded carriers+NIR irradiation, and carriers loaded with DOX+NIR irradiation, and changes in the mass of the mice along time of which are represented by lines 950, 960, 970, and 980, respectively.

[2] = tested on: in vivo tumors (RG2 cells); assay: Relative tumor volume after treatment with NIR irradiation; conditions: mice, 24 hours after the treatment
Procedure: In Experimental example 7, the targeting efficiency of the drug carrier of the present invention was tested by experiments on in vivo tumors (RG2 cells) of mice. The tumor temperature was also observed while undergoing NIR irradiation. Further, the effects on the volume of the tumors and the mass of the mice were observed through different conditions of treatment.
Referring to FIG. 15A, which is a relative tumor volume vs. time graph of mice after treated by different conditions. The treating conditions were PBS+NIR irradiation, pure DOX+NIR irradiation, non-drug loaded carriers+NIR irradiation, and carriers loaded with DOX+NIR irradiation, and changes in the relative tumor volume along time of which are represented by lines 910, 920, 930, and 940, respectively. The relative tumor volume was observed after 24 hours later of the treatment, and used the tumor volume right after the treatment as a base. […] As for the treatments of the PBS+NIR irradiation, i.e. line 910, and the pure DOX+NIR irradiation, i.e. line 920, the tumor volumes were increased. […] The treatment of the PBS+NIR irradiation, i.e. line 910, could not treat the tumor because there was no drug being injected. The treatment of the pure DOX+NIR irradiation, i.e. line 920, was difficult to reach the tumor region to have the effect of therapy because the drug was not encapsulated in carriers. […]

mass of mice over time [1]: no obvious difference in mass
SMILES: COc1cccc2c1C(=O)c1c(O)c3c(c(O)c1C2=O)C[C@@](O)(C(=O)CO)C[C@@H]3O[C@H]1C[C@H](N)[C@H](O)[C@H](C)O1 [DOX, doxorubicin]
cell death (RG2 cells; RG2 cells, pure DOX 0.25 μg/mL (bar 840)): about 50%
cell viability at 0.05 μg/mL DOX compared with 0.25 μg/mL (RG2 cells; RG2 cells, without NIR irradiation (bars 870, 880)): increased
IC50 (RG2 cells; Rattus norvegicus, RG2, read-out: half maximal inhibitory concentration (IC50)): ~0.25 µg/mL (≈ 0.46 µM)
relative tumor volume [2]: increased
